Test results reported in patent US10221163B2 (priority 2015, dated 2019).
Where two headings read alike, the source gives them in different places.

How the values were obtained:
[1] = test system: Serratia marcescens expressing IMP-1 (CL5741); format: cell-based; conditions: for Serratia marcescens expressing IMP-1 (CL5741) MITC95: with imipenem 1 μg/ml, 95% inhibition of bacterial growth; for Serratia marcescens MITC95: IMP-1 strain CL5741, with imipenem 1 μg/ml, 95% inhibition of growth
Outline: (§1)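 Colonies grown overnight on blood agar at 35° C were suspended in saline, diluted 1:100 into 1.1×CAMHB and dispensed. Imipenem was added to 1 μg/ml, then test compound. After 22 hours to 24 hours at 35° C, absorbance was recorded.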

[2] = test system: Klebsiella pneumoniae expressing VIM-1 (IHMA599644); format: cell-based; conditions: for Klebsiella pneumoniae expressing VIM-1 (IHMA599644) MITC95: with imipenem 1 μg/ml, 95% inhibition of bacterial growth; for Klebsiella pneumoniae MITC95: VIM-1 strain IHMA599644, with imipenem 1 μg/ml, 95% inhibition of growth
Outline: as §1

[3] = test system: Escherichia coli expressing NDM-1 (CLB30005, CLB30016); format: cell-based; conditions: with imipenem 1 μg/ml; for Escherichia coli expressing NDM-1 (CLB30016) MITC95: 95% inhibition of bacterial growth; for Escherichia coli MITC95: NDM-1 strain, 95% inhibition of growth
Outline: as §1

VIM-1 = VIM-1 (Pseudomonas aeruginosa (strain ATCC 15692 / DSM 22644 / CIP 104116 / JCM 14847 / LMG 12228 / 1C / PRS 101 / PAO1), UniProt A0A0F7KYQ8); test: biochemical; conditions: CCF2-FA substrate, 30 pM enzyme, 2 hours at 25° C.
Outline: (§2)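 Enzyme activity was measured by fluorescence using CCF2-FA, a cephalosporin-linked 7-hydroxycoumarin/fluorescein substrate, with inhibitor, metallo-β-lactamase and substrate incubated together for 2 hours at 25° C. IC50 came from a 4-parameter fit of inhibition versus log inhibitor concentration.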

NDM-1 = NDM-1 (Klebsiella pneumoniae, UniProt C7C422); test: biochemical; format: biochemical; conditions: fluorescence assay, CCF2-FA substrate, 1 pM enzyme, 2 hours at 25° C.; read-out: NDM-1 IC50
NDM-1, sequence (C7C422 whole entry, looked up, species assumed): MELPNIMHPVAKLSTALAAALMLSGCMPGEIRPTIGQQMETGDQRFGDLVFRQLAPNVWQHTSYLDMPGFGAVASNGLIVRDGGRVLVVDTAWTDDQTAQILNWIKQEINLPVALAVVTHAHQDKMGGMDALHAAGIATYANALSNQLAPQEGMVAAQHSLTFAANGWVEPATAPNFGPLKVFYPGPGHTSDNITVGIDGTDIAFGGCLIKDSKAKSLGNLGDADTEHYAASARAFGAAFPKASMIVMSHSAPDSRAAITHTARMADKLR
Outline: as §2

IMP-1 = IMP-1 (Serratia marcescens, UniProt P52699); test: biochemical; format: biochemical; conditions: fluorescence assay, CCF2-FA substrate, 2 pM enzyme, 2 hours at 25° C.; read-out: IMP-1 IC50
IMP-1, sequence (P52699 whole entry, looked up, species assumed): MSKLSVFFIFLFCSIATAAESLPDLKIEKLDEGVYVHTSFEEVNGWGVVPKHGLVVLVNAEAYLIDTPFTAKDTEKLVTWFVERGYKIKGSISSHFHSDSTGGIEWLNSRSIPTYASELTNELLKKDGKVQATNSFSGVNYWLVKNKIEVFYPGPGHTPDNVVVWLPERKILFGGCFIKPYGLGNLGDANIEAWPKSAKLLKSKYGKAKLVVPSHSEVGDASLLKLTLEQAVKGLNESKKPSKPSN
Outline: as §2

[4] = test system: Pseudomonas aeruginosa efflux− (MB9799), IMP-1; format: cell-based; conditions: C, D serine β-lactamase inhibitor closely related to relebactam; for P. aeruginosa expressing IMP-1, efflux − (MB9799) MITC95: concentration restoring susceptibility to imipenem at 2 μg/mL in the presence of a class A
Outline: (§3)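 PAO1 pair, broth microdilution; fixed β-lactam (imipenem/ceftazidime) at ~CLSI breakpoint + fixed class A/C BLI for AmpC; serial MBLi titration; endpoint = MBLi conc. restoring susceptibility; MB9798:MB9799 ratio = efflux liability.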

[5] = test system: Pseudomonas aeruginosa MB9798 vs MB9799
Outline: as §3

[6] = test system: Pseudomonas aeruginosa efflux+ (MB9798), IMP-1; format: cell-based; design: Concentration of metallo-β-lactamase inhibitor which restores susceptibility of efflux + (MB9798) strain to imipenem: unit not given here; conditions: C, D serine β-lactamase inhibitor closely related to relebactam; for P. aeruginosa expressing IMP-1, efflux + (MB9798) MITC95: concentration restoring susceptibility to imipenem at 2 μg/mL in the presence of a class A
Outline: as §3

[7] = ratio MITC95 PA_9798/MITC95 PA_9799
[8] = fluorescence assay, read-out: VIM-1 IC50

SMILES | Serratia marcescens expressing IMP-1 (CL5741) MITC95 [1] [µM] | Klebsiella pneumoniae expressing VIM-1 (IHMA599644) MITC95 [2] [µM] | Escherichia coli expressing NDM-1 (CLB30016) MITC95 [3] [µM] | IC50 (VIM-1; VIM-1 IC50, fluorescence assay) [nM] | IC50 (NDM-1) [nM] | IC50 (IMP-1) [nM] | P. aeruginosa expressing IMP-1, efflux − (MB9799) MITC95 [4] [µM] | Efflux ratio [5, 7] | P. aeruginosa expressing IMP-1, efflux + (MB9798) MITC95 [6] [µM] | IC50 (VIM-1; [8]) [nM] | Serratia marcescens MITC95 [1] [µM] | Klebsiella pneumoniae MITC95 [2] [µM] | Escherichia coli MITC95 [3] [µM] | Concentration of metallo-β-lactamase inhibitor which restores susceptibility of efflux − (MB9799) strain to imipenem ([4]; efflux− MB9799, imipenem at 2 μg/mL, in the presence of a class A) | Efflux ratio ([5]; fold difference between efflux+ (MB9798) and efflux− (MB9799) strains, imipenem at 2 μg/mL) | Concentration of metallo-β-lactamase inhibitor which restores susceptibility of efflux + (MB9798) strain to imipenem ([6]; efflux+ MB9798, imipenem at 2 μg/mL, in the presence of a class A)
CC(N)CNS(=O)(=O)c1ccc(-c2cccc3sc(N)nc23)c(-c2nnn[nH]2)c1S(N)(=O)=O.O=C(O)C(F)(F)F (stereo not drawn) [Example 109, 1-(4-(2-aminobenzo[d]thiazol-4-yl)-2-sulfamoyl-3-(1H-tetrazol-5-yl)phenylsulfonamido)propan-2-aminium 2,2,2-trifluoroacetate] | 1.563 | 3.125 | 1.563 | 0.322 | 0.0821 | 0.44 | 1.563 | 0.50 | 0.7813 | – | – | – | – | – | – | –
Nc1nc2c(-c3ccc(S(=O)(=O)N[C@@H]4CN[C@@H](CO)C4)c(S(N)(=O)=O)c3-c3nnn[nH]3)cccc2[nH]1 [Example 174, 4-(2-amino-1H-benzo[d]imidazol-4-yl)-N^1-((3S,5R)-5-(hydroxymethyl)pyrrolidin-3-yl)-3-(1H-tetrazol-5-yl)benzene-1,2-disulfonamide] | 1.563 | 3.125 | 3.125 | 0.39 | 0.117 | 1.66 | 1.563 | 1.00 | 1.563 | – | – | – | – | – | – | –
Nc1nc2c(-c3ccc(S(=O)(=O)N4CCNC(=O)C4)c(S(N)(=O)=O)c3-c3nnn[nH]3)cccc2s1 [Example 28, 3-(2-amino-1,3-benzothiazol-4-yl)-6-[(3-oxopiperazin-1-yl)sulfonyl]-2-(1H-tetrazol-5-yl)benzenesulfonamide] | 6.25 | 12.5 | 25 | – | 0.646 | 0.646 | 3.125 | 4.00 | 12.5 | 0.726 | – | – | – | – | – | –
NS(=O)(=O)c1ccc(-c2cccc3[nH]c(C(=O)O)nc23)c(-c2nn[nH]n2)c1S(N)(=O)=O [Example 8, 4-(3,4-disulfamoyl-2-(2H-tetrazol-5-yl)phenyl)-1H-benzo[d]imidazole-2-carboxylic acid] | 3.125 | 6.25 | 1.563 | – | 0.123 | 0.361 | 1.563 | 1.00 | 1.563 | 0.287 | – | – | – | – | – | –
Cc1cc(-c2ccc(S(=O)(=O)NC[C@@H](O)CN)c(S(N)(=O)=O)c2-c2nn[nH]n2)cnc1N [Example 468, (S)-N1-(3-amino-2-hydroxypropyl)-4-(6-amino-5-methylpyridin-3-yl)-3-(2H-tetrazol-5-yl)benzene-1,2-disulfonamide] | – | – | – | – | 0.133 | 0.569 | – | – | – | 0.0869 | 0.7813 | 3.125 | 0.3906 | 0.7813 | 2.00 | 1.563
Nc1nc2c(-c3ccc(S(=O)(=O)NC[C@@H]4CCNC4)c(S(N)(=O)=O)c3-c3nn[nH]n3)cccc2[nH]1 [Example 263, (R)-4-(2-amino-1H-benzo[d]imidazol-4-yl)-N1-(pyrrolidin-3-ylmethyl)-3-(2H-tetrazol-5-yl)benzene-1,2-disulfonamide] | – | – | – | 0.205 | 0.0461 | 0.864 | 0.7813 | 1.00 | 0.7813 | – | 0.7813 | 1.563 | 0.3906 | – | – | –
